The values below are quoted from earlier work in US4489091A, “Antilipemic and anti-inflammatory compositions containing sulfonate derivatives” (Taiho Pharmaceutical Company Limited, priority 1980, dated 1984).

The conditions of the data set: reported in the literature; cited from earlier work.

In the case of `O=C(O)c1cccnc1` [nicotinic acid], the Side effects result is “pruritus and cutaneous flushing due to vasodilatation, gastrointestinal disorders, abnormalities in liver function and glucose intolerance”.
